In US6685962B2, “Gastroretentive controlled release pharmaceutical dosage forms” (priority 1999, dated 2004):

Assay: Riboflavin plasma pharmacokinetics and bioavailability after IV bolus, oral solution or GRDF
Format: in vivo, Beagle dogs
Conditions: for log-terminal slope of plasma riboflavin concentration: 100 mg riboflavin-5-phosphate, dogs n=6
Method: Each dog received the drug by each of these modes, with at least one-week washout period between every phase of the study.
Following each administration blood samples (4 ml) were collected into 5 ml heparinized test tubes wrapped in aluminum foil (to protect from light), for modes (1) and (2) at times 0, 0.25, 0.5, 1, 1.5, 2, 2.5, 3, 3.5, 4, 6, 8, 11, 24 hours, and for mode (3) at times 0, 0.5, 1, 1.5, 2, […], 3, 4, 6, 9, 12, 15, 18, 21, 24, 27, 30, 33, 36 and 48 hours. Plasma was separated following centrifugation (4000 rpm for 10 minutes), and stored at −20° C. pending analysis.
Riboflavin plasma concentrations were determined by an HPLC method as follows: 100 μl trichloroacetic acid (20%) was mixed with 300 μl of a plasma sample. Following centrifugation of the mixture (13,000 rpm for 10 minutes) the supernatant was separated and incubated for 10 min at 85° C. After additional centrifugation (13,000 rpm for 10 minutes) 60 μl of the solution were injected to C18 HPLC column, with mobile phase that consisted of 15% acetonitrile in solution A (10 mmol potassium dihydrogen phosphate/L and 5 mmol hexanesulfonic acid/L, brought to a pH of 3 with orthophosphoric acid) at a flow rate of 1 ml/min. A spectrofluorometric detector set at 445 nm for excitation wavelength and 530 nm for emission wavelength detected the drug. Drug concentrations were determined with appropriate standard curves.

bioavailability (Beagle, dog, plasma, 100 mg, oral administration (oral solution), dogs, read-out: absolute bioavailability of riboflavin): 5.8 ± 2.2% | rate of riboflavin elimination (concluded from iv and PO administration, dogs): 0.4 h⁻¹ | log-terminal slope of plasma riboflavin concentration (intravenous bolus): 0.44±0.13 hr^−1 | log-terminal slope of plasma riboflavin concentration (oral solution): 0.35±0.14 hr^−1
Structure (SMILES): Cc1cc2nc3c(=O)[nH]c(=O)nc-3n(C[C@H](O)[C@H](O)[C@H](O)CO)c2cc1C [riboflavin]
